Experimental data from patent US20260000676A1, “CHROMAN DERIVATIVES AS ESTROGEN RECEPTOR DEGRADERS” (THE REGENTS OF THE UNIVERSITY OF MICHIGAN, priority 2022, published 2026).

How the values were obtained:
ERα_LBD(GST) = ERα_LBD(GST) (Homo sapiens (Human), UniProt P03372); test: LanthaScreen TR-FRET ERα competitive binding assay; conditions: read-out: ERα HTRF IC50
Protocol: • 1. ERα_LBD(GST) protein: 4 nM • 2. Tb Anti-GST: 2 nM • 3. Fluormone ES2 Green tracer: 3 nM • 4. Incubation time: 60 min • 5. DMSO: 1% • 6. Assay buffer: Adding 1M DTT to Nuclear receptor Buffer K for final 5 mM DTT. • 7. ZPE: 1% DMSO • 8. HPE: 1 μM ARV_471 • 9. LanthaScreen® TR-FRET ERα Competitive Binding Assay (ThermoFisher, #A15887)
• 1) Cherry pick 2 μL 10 mM compound stock to column 1 of a 384 intermediate plate • 2) Add 18 μL DMSO to column 1 to dilute compound to 1 mM. • 3) Transfer 10 μL 1 mM compound to column 1 of a LDV plate. • 2) Add 6 μl DMSO to column 2-10 of the LDV plate. • 3) Compounds undergo 3-fold serial dilution (3 μL+6 μL) in DMSO. • 4) Transfer 120 nL compound solution to assay plate. • ZPE: 120 nL 100% DMSO
Prepare complete nuclear receptor buffer K by adding 1 M DTT to nuclear receptor buffer K for a final concentration of 5 mM DTT. Complete nuclear receptor buffer K must be prepared fresh daily. Prepare 2× protein solution using complete nuclear receptor buffer K containing 8 nM ERα_LBD(GST) and 4 nM Tb Anti-GST. Then, prepare 2× Fluormone ES2 Green tracer (6 nM) using complete nuclear receptor buffer K. Add 6 μL 2× Fluormone ES2 green tracer into a compound plate (PerkinElmer 6008289) by dragonfly with one-tips-addition. Subsequently, add 6 μL 2× protein solution into the plate. Briefly and gently mix the 384-well plate on a plate shaker and incubate at room temperature protected from light for 60 min. The plate is sealed with a cover to minimize evaporation. Read the plate at wavelengths of 520 nm and 495 nm. Calculate the TR-FRET ratio by dividing the emission signal at 520 nm by the emission signal at 495 nm. Generate a binding curve by plotting the emission ratio vs. the log [ligand]. To determine the IC50 value, fit the data using XL-fit for a sigmoidal dose-response.

CRBN/DDB1 = CRBN/DDB1 (Homo sapiens (Human), UniProt Q96SW2); test: HTRF binding assay to CRBN/DDB1; conditions: read-out: CRBN HTRF IC50
Chain of CRBN/DDB1 (Q96SW2 whole entry): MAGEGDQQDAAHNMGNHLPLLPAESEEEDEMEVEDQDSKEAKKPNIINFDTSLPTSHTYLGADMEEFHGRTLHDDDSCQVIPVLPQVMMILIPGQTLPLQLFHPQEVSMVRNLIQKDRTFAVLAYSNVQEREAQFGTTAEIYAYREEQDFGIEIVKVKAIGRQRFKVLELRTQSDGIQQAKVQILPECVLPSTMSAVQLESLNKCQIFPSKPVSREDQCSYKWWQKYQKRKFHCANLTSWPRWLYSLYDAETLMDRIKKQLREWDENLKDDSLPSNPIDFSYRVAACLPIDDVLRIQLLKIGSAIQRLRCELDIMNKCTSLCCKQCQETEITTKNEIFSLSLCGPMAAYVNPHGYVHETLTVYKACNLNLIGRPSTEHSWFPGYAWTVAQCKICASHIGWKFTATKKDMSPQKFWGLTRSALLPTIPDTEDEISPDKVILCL
Chain of CRBN/DDB1 (Q16531 whole entry partner): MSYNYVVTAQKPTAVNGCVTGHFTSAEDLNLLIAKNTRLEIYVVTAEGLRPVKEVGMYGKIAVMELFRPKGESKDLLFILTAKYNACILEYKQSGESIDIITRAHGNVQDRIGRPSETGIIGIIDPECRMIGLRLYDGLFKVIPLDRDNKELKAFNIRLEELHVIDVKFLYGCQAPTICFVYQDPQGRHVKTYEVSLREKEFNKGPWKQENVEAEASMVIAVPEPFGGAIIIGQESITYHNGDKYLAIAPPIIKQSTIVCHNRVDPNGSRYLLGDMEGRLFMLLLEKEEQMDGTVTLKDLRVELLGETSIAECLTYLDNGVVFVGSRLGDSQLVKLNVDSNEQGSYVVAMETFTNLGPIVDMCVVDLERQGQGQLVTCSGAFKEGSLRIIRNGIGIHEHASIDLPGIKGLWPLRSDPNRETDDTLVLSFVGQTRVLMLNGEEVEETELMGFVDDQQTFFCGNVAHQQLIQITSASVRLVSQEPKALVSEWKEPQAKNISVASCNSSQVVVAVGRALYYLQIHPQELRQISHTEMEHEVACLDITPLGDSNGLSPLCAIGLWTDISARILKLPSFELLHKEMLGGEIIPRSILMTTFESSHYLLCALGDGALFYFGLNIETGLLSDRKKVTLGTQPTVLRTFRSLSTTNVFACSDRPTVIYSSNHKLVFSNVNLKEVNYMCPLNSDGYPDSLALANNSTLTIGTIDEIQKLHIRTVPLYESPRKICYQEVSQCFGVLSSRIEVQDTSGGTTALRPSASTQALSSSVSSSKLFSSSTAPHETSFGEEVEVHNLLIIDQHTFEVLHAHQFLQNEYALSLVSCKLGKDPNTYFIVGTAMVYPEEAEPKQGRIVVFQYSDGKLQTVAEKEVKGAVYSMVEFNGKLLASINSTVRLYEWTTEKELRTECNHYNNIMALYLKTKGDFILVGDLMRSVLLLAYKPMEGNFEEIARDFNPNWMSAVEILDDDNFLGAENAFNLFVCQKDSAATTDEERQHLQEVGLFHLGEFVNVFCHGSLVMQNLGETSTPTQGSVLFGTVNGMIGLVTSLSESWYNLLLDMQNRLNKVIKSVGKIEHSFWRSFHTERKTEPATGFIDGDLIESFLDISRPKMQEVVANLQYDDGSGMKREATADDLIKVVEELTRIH
Protocol: The binding potency was determined using HTRF assay technology (Perkin Elmer). Compounds were serially diluted in DMSO and 0.2 μL volume was transferred to white 384-well plate.

ER [1] = molecular target: T1, ER (Homo sapiens (Human), UniProt P03372); test: In-cell western (ICW) ER degradation assay in MCF-7 cells; format: cell-based; conditions: MCF7, 16 hrs; for DC50: ER degradation; for Dmax: MCF7, maximal ER degradation; for MCF7 Dmax %: maximal ER degradation
T1 sequence (P03372 whole entry): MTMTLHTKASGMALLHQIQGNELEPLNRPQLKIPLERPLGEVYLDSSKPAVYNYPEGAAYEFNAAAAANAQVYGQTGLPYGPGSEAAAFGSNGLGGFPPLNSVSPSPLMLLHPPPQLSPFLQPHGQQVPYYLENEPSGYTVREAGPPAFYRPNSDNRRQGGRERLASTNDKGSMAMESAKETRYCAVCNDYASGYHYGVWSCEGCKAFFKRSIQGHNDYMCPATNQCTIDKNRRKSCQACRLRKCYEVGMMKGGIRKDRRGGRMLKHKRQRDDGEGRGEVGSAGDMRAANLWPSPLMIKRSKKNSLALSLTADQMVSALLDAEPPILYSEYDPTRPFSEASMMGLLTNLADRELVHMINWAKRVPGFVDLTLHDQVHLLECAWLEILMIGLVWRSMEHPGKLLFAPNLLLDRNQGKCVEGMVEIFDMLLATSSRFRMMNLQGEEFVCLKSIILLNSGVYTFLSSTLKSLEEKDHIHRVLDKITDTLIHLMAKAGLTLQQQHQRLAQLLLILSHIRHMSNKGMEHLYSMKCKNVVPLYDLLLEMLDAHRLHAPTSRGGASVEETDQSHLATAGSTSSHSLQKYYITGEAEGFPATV

ER [2] = molecular target: T1, ER; test: In-cell western (ICW) ER degradation assay in T47D cells; format: cell-based; conditions: 16 hrs; for DC50: ER degradation; for Dmax / T47D Dmax %: maximal ER degradation

Chain of ERα_LBD(GST) (P03372 311-547): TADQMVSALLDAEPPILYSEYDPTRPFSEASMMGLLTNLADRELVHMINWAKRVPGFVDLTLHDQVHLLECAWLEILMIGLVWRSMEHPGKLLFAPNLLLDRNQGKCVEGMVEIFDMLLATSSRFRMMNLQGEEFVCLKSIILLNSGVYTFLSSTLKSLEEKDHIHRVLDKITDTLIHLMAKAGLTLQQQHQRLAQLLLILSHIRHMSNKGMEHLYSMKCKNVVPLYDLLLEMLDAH

Compound | IC50 (ERα_LBD(GST)) [nM] | IC50 (CRBN/DDB1) [nM] | DC50 (ER [1]) [nM] | Dmax (ER [1]) [%] | DC50 (ER [2]) [nM] | Dmax (ER [2]) [%] | MCF7 Dmax % (ER [1]) | T47D Dmax % (ER [2]) | DC50 (ER [1]; given as number) [nM]
O=C1CCC(N2Cc3c(ccc4c3OC[C@@H]3CN(CC5CC6(CCN(c7ccc([C@H]8c9ccc(O)cc9OC[C@H]8c8ccccc8)cc7)CC6)C5)CCN43)C2=O)C(=O)N1 (single isomer, unassigned) [Compound A21] | < 5 |  |  |  |  |  |  |  | 
COc1cc(N2CCC(CN3CCN4c5cc6c(cc5OC[C@H]4C3)C(=O)N(C3CCC(=O)NC3=O)C6)CC2)ccc1[C@H]1c2ccc(O)cc2OC[C@H]1c1ccccc1 (stereo partly drawn) [Compound A74, 3-((R)-3-((1-(4-((3R,4S)-7-hydroxy-3-phenylchroman-4-yl)-3-methoxyphenyl)piperidin-4-yl)methyl)-8-oxo-1,2,3,4,4a,5,8,10-octahydro-9H-pyrazino[1′,2′:4,5][1,4]oxazino[2,3-f]isoindol-9-yl)piperidine-2,6-dione] |  | 500 to 5000 | < 1 | < 25 | 1 to 10 | 25 to 50 |  |  | 
O=C1CC[C@@H](Nc2ccc(C3CCN(C[C@H]4COC5(CCN(c6ccc([C@@H]7c8ccc(O)cc8OC[C@@H]7c7ccccc7)cc6)CC5)C4)CC3)c(F)c2)C(=O)N1 (single isomer, unassigned) [Compound A163] |  | 50 to 500 | < 1 | 25 to 50 | < 1 | 50 to 75 |  |  | 
O=C1CCC(NC(=O)c2ccc3c(n2)OC[C@H]2CN(CC4CCN(c5ccc([C@@H]6c7ccc(O)cc7OC[C@@H]6c6ccccc6)cc5F)CC4)CCN32)C(=O)N1 (single isomer, unassigned) [Compound A104] |  | 500 to 5000 | 1 to 10 | ≥ 75 | 1 to 10 | ≥ 75 |  |  | 
O=C1CCC(N2Cc3cc4c(cc3C2=O)OC[C@@H]2CN(CC3CCN(c5ccc([C@@H]6c7ccc(O)cc7OC[C@@H]6c6ccccc6)cn5)CC3)CCN42)C(=O)N1 (single isomer, unassigned) [Compound A70] |  | 50 to 500 | > 100 |  | 1 to 10 |  |  |  | 
O=C1CCC(N2Cc3cc4c(cc3C2=O)OC[C@@H]2CN(CC3CCC5(CC3)CN(c3ccc([C@@H]6c7ccc(O)cc7OC[C@@H]6c6ccccc6)cc3)C5)CCN42)C(=O)N1 (stereo partly drawn) [Compound A63, 3-((S)-3-((2-(4-((3S,4R)-7-hydroxy-3-phenylchroman-4-yl)phenyl)-2-azaspiro[3.5]nonan-7-yl)methyl)-8-oxo-1,2,3,4,4a,5,8,10-octahydro-9H-pyrazino[1′,2′:4,5][1,4]oxazino[2,3-f]isoindol-9-yl)piperidine-2,6-dione] |  | 500 to 5000 | > 100 |  | > 100 |  | D (“D”; <25%) | D (“D”; <25%) | 
COc1cc(N2CCC(CN3CCN(c4ccc(C(=O)NC5CCC(=O)NC5=O)nc4)CC3)CC2)c(F)cc1[C@H]1c2ccc(O)cc2OC[C@H]1c1ccccc1 (stereo partly drawn) [Compound A109, N-(2,6-dioxopiperidin-3-yl)-5-(4-((1-(2-fluoro-4-((3R,4R)-7-hydroxy-3-phenylchroman-4-yl)-5-methoxyphenyl)piperidin-4-yl)methyl)piperazin-1-yl)picolinamide] |  | > 5000 | 10 to 100 |  | 1 to 10 |  | C (“C”: 25%-50%) | C (“C”: 25%-50%) | 
COc1cc(N2CCC(CN3CCN(c4cnc(C(=O)NC5CCC(=O)NC5=O)cc4OC)CC3)CC2)ccc1[C@H]1c2ccc(O)cc2OC[C@H]1c1ccccc1 (single isomer, unassigned) [Compound A127] |  | > 5000 | < 1 | 50 to 75 | < 1 | 25 to 50 |  |  | 
O=C1CCC(NC(=O)c2ccc3c(n2)OC[C@H]2CN(CC4CCN(c5ccc([C@H]6c7ccc(O)cc7OC[C@H]6c6ccccc6)cc5F)CC4)CCN32)C(=O)N1 (stereo partly drawn) [Compound A103, (4aR)-N-(2,6-dioxopiperidin-3-yl)-3-((1-(2-fluoro-4-((3R,4S)-7-hydroxy-3-phenylchroman-4-yl)phenyl)piperidin-4-yl)methyl)-1,2,3,4,4a,5-hexahydropyrazino[1,2-d]pyrido[2,3-b][1,4]oxazine-8-carboxamide] |  | 500 to 5000 | 1 to 10 | 50 to 75 | 1 to 10 | 50 to 75 |  |  | 
O=C1CC[C@@H](Nc2ccc(C3CCN(C[C@@H]4COC5(CCN(c6ccc([C@@H]7c8ccc(O)cc8OC[C@@H]7c7ccccc7)cc6)CC5)C4)CC3)c(F)c2)C(=O)N1 (single isomer, unassigned) [Compound A165] |  | 50 to 500 |  | 25 to 50 | < 1 | 50 to 75 |  |  | 0.31
O=C1CCC(NC(=O)c2ccc(N3CCN(CC4CCN(c5ccc([C@H]6c7ccc(O)cc7OC[C@H]6c6ccccc6)cc5F)CC4)CC3)cn2)C(=O)N1 (single isomer, unassigned) [Compound A100] |  | > 5000 | 1 to 10 | 50 to 75 | 1 to 10 | 50 to 75 |  |  | 
COc1cc(N2CCC(CN3CCN(c4ccc(C(=O)NC5CCC(=O)NC5=O)nc4)CC3)CC2)ccc1[C@H]1c2ccc(O)cc2OC[C@H]1c1ccccc1 (single isomer, unassigned) [Compound A124] |  | > 5000 | < 1 | 50 to 75 | < 1 | 50 to 75 |  |  | 
O=C1CCC(N2Cc3cc(N4CCN(CC5CC6(CCN(c7ccc([C@@H]8c9ccc(O)cc9OC[C@@H]8c8ccccc8)cn7)CC6)C5)CC4)ccc3C2=O)C(=O)N1 (single isomer, unassigned) [Compound A67] |  | 50 to 500 | > 100 |  | 10 to 100 |  | D (“D”; <25%) | D (“D”; <25%) | 
O=C1CC[C@@H](NC(=O)c2ccc(N3CCC(CN4CC5(CCN(c6ccc([C@H]7c8ccc(O)cc8OC[C@H]7c7ccccc7)cc6)CC5)C4)CC3)cn2)C(=O)N1 (single isomer, unassigned) [Compound A111] |  | 500 to 5000 | < 1 | 50 to 75 | < 1 | 50 to 75 |  |  | 
O=C1CCC(NC(=O)c2ccc3c(n2)OC[C@H]2CN(CC4CC5(CCN(c6ccc([C@@H]7c8ccc(O)cc8OC[C@@H]7c7ccccc7)cc6)CC5)C4)CCN32)C(=O)N1 (stereo partly drawn) [Compound A93, (4aR)-N-(2,6-dioxopiperidin-3-yl)-3-((7-(4-((3S,4R)-7-hydroxy-3-phenylchroman-4-yl)phenyl)-7-azaspiro[3.5]nonan-2-yl)methyl)-1,2,3,4,4a,5-hexahydropyrazino[1,2-d]pyrido[2,3-b][1,4]oxazine-8-carboxamide] |  | 500 to 5000 | 1 to 10 | 50 to 75 | < 1 | 50 to 75 |  |  | 
COc1cc(N2CCC3(CC2)CC(CN2CCN4c5ccc6c(c5OC[C@@H]4C2)CN([C@@H]2CCC(=O)NC2=O)C6=O)C3)c(F)cc1[C@H]1c2ccc(O)cc2OC[C@H]1c1ccccc1 [Compound A126, (R)-3-((S)-7-((7-(2-fluoro-4-((3R,4R)-7-hydroxy-3-phenylchroman-4-yl)-5-methoxyphenyl)-7-azaspiro[3.5]nonan-2-yl)methyl)-1-oxo-1,3,5,5a,6,7,8,9-octahydro-2H-pyrazino[1′,2′:4,5][1,4]oxazino[2,3-e]isoindol-2-yl)piperidine-2,6-dione] |  | < 50 | 1 to 10 | 25 to 50 | < 1 | 50 to 75 |  |  | 
COc1cc(N2CCC(CN3CCC4(CC3)COc3cc5c(cc34)CN(C3CCC(=O)NC3=O)C5=O)CC2)ccc1[C@H]1c2ccc(O)cc2OC[C@H]1c1ccccc1 (stereo partly drawn) [Compound A136, 3-(1′-((1-(4-((3R,4S)-7-hydroxy-3-phenylchroman-4-yl)-3-methoxyphenyl)piperidin-4-yl)methyl)-7-oxo-5,7-dihydro-2H,6H-spiro[furo[2,3-f]isoindole-3,4′-piperidin]-6-yl)piperidine-2,6-dione] |  | < 50 | < 1 | 50 to 75 | < 1 | 50 to 75 |  |  | 
O=C1CCC(NC(=O)c2ccc(N3CCC(CN4CCN(c5ccc([C@H]6c7ccc(O)cc7OC[C@H]6c6ccccc6)cc5)CC4)CC3)cn2)C(=O)N1 (stereo partly drawn) [Compound A129, N-(2,6-dioxopiperidin-3-yl)-5-(4-((4-(4-((3R,4S)-7-hydroxy-3-phenylchroman-4-yl)phenyl)piperazin-1-yl)methyl)piperidin-1-yl)picolinamide] |  | > 5000 | 10 to 100 |  | 10 to 100 |  | C (“C”: 25%-50%) | B (“B”: >50% and <75%) | 
